# Results reported in patent US4638070A, “Heterocyclic amino-alcohol derivatives” (Continental Pharma, priority 1980, dated 1987).
# Assays:
# [1] = system: unanaesthetized, hypertension-suffering rat; test: Antihypertensive activity (systolic arterial pressure), oral; type: in vivo; settings: 60 mg/kg, hypertensive rat, 3 hours
# Protocol: (2) The antihypertensive activity was measured on unanaesthetized, hypertension-suffering rat. The tested substances were orally given at a rate of 60 mg/kg. The systolic arterial pressure was measured every 30 minutes for 2 hours before and for 3 hours after the tested product was given. Results are expressed as follows: […]
# O: no reduction of arterial pressure.
# +: reduction lower than 10 mm Hg.
# ++: reduction of 10 to 20 mm Hg.
# +++: reduction higher than 20 mm Hg.
# [2] = system: femoral artery; test: Vasodilator activity, femoral artery (technique of perfused paw); type: in vivo; parameters: key: O: no action; +: slight activity; ++: effect equal to half the effect of papaverine; +++: effect equal to that of papaverine; ++++: effect higher than that of papaverine; settings: intra-arterial, 30 mg/kg, anaesthetized dog, vs papaverine at same dose
# Protocol: (3) The vasodilator activity was measured at the level of femoral artery on anaesthetized dog (technique of perfused paw). The tested substances were given intra-arterially at the rate of 30 mg/kg. Results are expressed with respect to papaverine tested at the same dose.
# ++: effect equal to half the effect of papaverine.
# +++: effect equal to that of papaverine.
# ++++: effect higher than that of papaverine.
# [3] = system: guinea-pig ileum (histamine contractions); test: Antispasmodic activity in vitro, contractions caused by histamine; settings: added 15 minutes before spasm-producing agent
# Protocol: (§1) (4) The antispasmodic activity was measured in vitro, on guinea-pig ileum, the contractions of which were caused by histammne (Hist.), acetylcholine (Achol) or barium chloride (BaCl2). The tested products were added to perfusion bath 15 minutes before the spasm-producing agents.
# (§2) The dose is given in micograms (μg) per ml of bath causing complete spasm inhibition.
# [4] = system: guinea-pig ileum (acetylcholine contractions); test: Antispasmodic activity in vitro, contractions caused by acetylcholine; settings: added 15 minutes before spasm-producing agent
# Protocol: as §1, §2
# [5] = Acute toxicity, oral, LD50 (Litchfield and Wilcoxon); settings: mouse, in vivo, fasted male mice, confidence limits p=95% in brackets
# Protocol: (1) The acute toxicity was determined on fasted male mice. The tested substances were orally administered and LD50 values (lethal dose for 50% of animals) were calculated according to the method of Litchfield and Wilcoxon (J. Pharmacol. exp. Ther. 96, 94-113, 1949). These LD50 values are given in mg/kg and also, when possible, with their confidence limits for p=95%.
Compound,ANTIHYPERTENSIVE ACTIVITY [1],VASODILATOR ACTIVITY [2],ANTISPASMODIC ACTIVITY HIST. (dose causing complete spasm inhibition) [3] [μg per ml],ANTISPASMODIC ACTIVITY ACHOL (dose causing complete spasm inhibition) [4] [μg per ml],LD50 [5] [mg/kg]
COCCOCCCNC(C)C(O)c1ccc2c(c1)CCCS2 (centres unmarked) [No 81],+++ (reduction higher than 20 mm Hg),++,16.7,16.7,–
CC(NCCOc1ccc(C#N)cc1)C(O)c1ccc2c(c1)CCS2 (centres unmarked) [No 85],+++ (reduction higher than 20 mm Hg),+++,8.3,16.7,–
CCCCCCCCNC(C)C(OC(=O)C(C)C)c1ccc2c(c1)CCCS2 (centres unmarked) [No 139],+++ (reduction higher than 20 mm Hg),–,–,–,–
CC(NCCCCc1ccccc1)C(O)c1ccc2c(c1)CCCC2 (centres unmarked) [No 171],+ (reduction lower than 10 mm Hg),+++,0.8,0.8,–
Cc1ccc(CCCCNC(C)C(O)c2ccc3c(c2)CC(C)O3)cc1 (centres unmarked) [No 90],+++ (reduction higher than 20 mm Hg),++++,0.8,1.7,–
Cc1ccc(CCCCNC(C)C(O)c2ccc3c(c2)CCCCS3)cc1 (centres unmarked) [No 30],+++ (reduction higher than 20 mm Hg),+++,1.7,0.8,–
CC1Cc2cc(C(O)C(C)NCCCc3ccccc3)ccc2O1 (centres unmarked) [No 69],+++ (reduction higher than 20 mm Hg),++,8.3,16.7,–
CCCCOCCCNC(C)C(O)c1ccc2c(c1)CC(C)O2 (centres unmarked) [No 74],+ (reduction lower than 10 mm Hg),++,8.3,8.3,–
C[C@H](NCCCCc1ccccc1)[C@@H](O)c1ccc2c(c1)CCS2 (relative stereo) [No 98],+ (reduction lower than 10 mm Hg),–,–,–,–
CC(=O)OC(c1ccc2c(c1)CCS2)C(C)NCCCCc1ccccc1 (centres unmarked) [No 112],+++ (reduction higher than 20 mm Hg),+++,0.3,3.3,–
CC(NCCCC(=O)c1ccc(F)cc1)C(O)c1ccc2c(c1)CCC2 (centres unmarked) [No 175],+++ (reduction higher than 20 mm Hg),++,0.8,0.8,–
"1-(2-methyl-2,3-dihydro-5-benzo[b]furanyl-2-[4-(p-chlorophenyl)butylamino]- 1-propanol [No 65]",+++ (reduction higher than 20 mm Hg),++++,1.7,1.7,–
CCCCCCCCNC(C)C(O)c1ccc2c(c1)SCCS2 (centres unmarked) [No 101],++ (reduction of 10 to 20 mm Hg),+++,0.8,0.8,–
CC(=O)O[C@@H](c1ccc2c(c1)CCS2)[C@H](C)NCCCCc1ccccc1 (relative stereo) [No 113],+ (reduction lower than 10 mm Hg),–,–,–,–
CC(C(O)c1ccc2c(c1)CCC2)N1CCOC(c2ccccc2)C1C (centres unmarked) [No 177],++ (reduction of 10 to 20 mm Hg),–,1.7,1.7,–
CCCCOCCOCCCNC(C)C(O)c1ccc2c(c1)CCCS2 (centres unmarked) [No 72],–,++,1.7,1.7,880
"1-(2,3-dihydro-5-benzo[b]thienyl)-2-(4-phenylbutylamino)-1-propanol [Example 18]",+++ (reduction higher than 20 mm Hg),++++,0.8,0.33,–
CC(NCCOc1ccc2c(c1)CCC2)C(O)c1ccc2c(c1)CCCS2 (centres unmarked) [No 83],–,+++,1.7,0.8,> 4000
CC(NCCOc1ccc(C(C)(C)C)cc1)C(O)c1ccc2c(c1)CCC2 (centres unmarked) [No 176],–,+++,0.17,0.8,> 4000
CC(NCCCN1CCCC1)C(O)c1ccc2c(c1)CCCS2 (centres unmarked) [No 59],–,+++,3.3,3.3,1120
Cc1ccc(CCCCNC(C)C(O)c2ccc3c(c2)CCC3)cc1 (centres unmarked) [No 166],++ (reduction of 10 to 20 mm Hg),+++,0.8,0.8,–
CCCCCCCCNC(C)C(O)c1ccc2c(c1)CCCC2 (centres unmarked) [No 170],–,+++,1.7,0.8,~2300
Cc1ccc(CCNC(C)C(O)c2ccc3c(c2)CC(C)S3)cc1 (centres unmarked) [No 71],+++ (reduction higher than 20 mm Hg),+++,0.8,0.8,–
CC(NCCOc1ccc(C(C)(C)C)cc1)C(O)c1ccc2c(c1)CCCS2 (centres unmarked) [No 107],–,+++,0.8,0.8,> 4000
CC(C)NC(C)C(O)c1ccc2c(c1)CCS2 (centres unmarked) [No 33],–,+++,16.7,16.7,355
CC1Cc2cc(C(O)C(C)NCCCOc3ccccc3)ccc2S1 (centres unmarked) [No 64],+++ (reduction higher than 20 mm Hg),+++,1.7,1.7,–
C#CC(C)(C)NC(C)C(O)c1ccc2c(c1)CCCS2 (centres unmarked) [No 44],+++ (reduction higher than 20 mm Hg),++,16.7,8.3,–
